In patent US9587005B2 (priority 2010, dated 2017):
Read-outs that look alike come from different tables or passages of the source. *1 amine or outer side, *2 acyl side, *3 side chain or, on linkers, in order; H or OH if unused. Where a SMILES comes first, the peptide text is derived from it. Where no end group is shown, it is not given here. Side-chain parts run from the residue outwards. [ ]: non-standard residue; d: D form. The star is where a group is joined. Phe(4-NH2) = Nc1ccc(C[C@H](N)C(=O)O)cc1; γGlu = O=C(O)[C@H](CCC(=O)[*:2])N[*:1]; X6 = CCCCCCCCCCCCCCCCC(CC(=O)*)C(=O)O; Palmitoyl = CCCCCCCCCCCCCCCC(=O)*; Aib = CC(C)(N)C(=O)O

Experiments:
Type in all cases: cell-based
GLP-1 receptor = target: T1, GLP-1 receptor (Homo sapiens, UniProt P43220); assay: cAMP induction, firefly luciferase reporter assay in HEK293 cells co-transfected with GLP-1 receptor
T1 construct: expressed in transfected cells; host or cells: HEK293
From the text: (§1) This example describes an exemplary method of testing the biological activity of the peptides of the present disclosures, which method involves assaying cAMP synthesis.

GIP receptor = target: T2, GIP receptor (Homo sapiens, UniProt P48546); assay: cAMP induction, firefly luciferase reporter assay in HEK293 cells co-transfected with GIP receptor
T2 sequence (P48546 22-466): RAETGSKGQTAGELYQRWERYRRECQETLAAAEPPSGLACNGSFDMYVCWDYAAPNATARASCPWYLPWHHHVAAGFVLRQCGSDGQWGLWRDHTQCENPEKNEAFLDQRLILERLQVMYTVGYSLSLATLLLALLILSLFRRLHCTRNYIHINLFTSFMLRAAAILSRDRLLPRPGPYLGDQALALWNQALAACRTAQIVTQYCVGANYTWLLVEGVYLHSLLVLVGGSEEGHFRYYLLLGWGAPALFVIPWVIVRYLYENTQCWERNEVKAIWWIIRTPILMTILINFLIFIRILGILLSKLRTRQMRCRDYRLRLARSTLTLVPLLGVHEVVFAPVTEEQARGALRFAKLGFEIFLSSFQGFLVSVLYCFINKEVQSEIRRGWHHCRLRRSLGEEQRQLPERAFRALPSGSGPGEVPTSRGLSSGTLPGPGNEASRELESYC

glucagon receptor = target: T3, glucagon receptor (Homo sapiens, UniProt P47871); assay: cAMP induction, firefly luciferase reporter assay in HEK293 cells co-transfected with glucagon receptor
T3 construct: expressed in transfected cells; host or cells: HEK293
From the text: as §1

[1] = GLP-1 Receptor EC50, Table 10, Example 16
[2] = Table 10, Example 16, read-out: GIP-1 Receptor EC50
[3] = EC50 (nM) at glucagon receptor, Table 16, Example 24

T3 sequence (P47871 26-477): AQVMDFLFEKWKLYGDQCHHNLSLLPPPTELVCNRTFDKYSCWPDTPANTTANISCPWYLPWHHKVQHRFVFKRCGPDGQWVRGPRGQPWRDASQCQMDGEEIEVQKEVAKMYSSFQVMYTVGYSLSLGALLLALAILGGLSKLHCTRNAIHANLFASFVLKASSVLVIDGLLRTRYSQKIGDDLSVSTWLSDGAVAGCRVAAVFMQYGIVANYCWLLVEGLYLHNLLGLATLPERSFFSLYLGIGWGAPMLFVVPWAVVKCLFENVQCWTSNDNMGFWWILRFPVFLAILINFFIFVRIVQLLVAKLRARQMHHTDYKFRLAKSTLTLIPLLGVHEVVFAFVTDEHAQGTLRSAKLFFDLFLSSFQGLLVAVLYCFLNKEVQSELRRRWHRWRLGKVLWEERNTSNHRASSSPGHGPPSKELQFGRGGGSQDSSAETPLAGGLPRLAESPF
T1 sequence (P43220 24-463): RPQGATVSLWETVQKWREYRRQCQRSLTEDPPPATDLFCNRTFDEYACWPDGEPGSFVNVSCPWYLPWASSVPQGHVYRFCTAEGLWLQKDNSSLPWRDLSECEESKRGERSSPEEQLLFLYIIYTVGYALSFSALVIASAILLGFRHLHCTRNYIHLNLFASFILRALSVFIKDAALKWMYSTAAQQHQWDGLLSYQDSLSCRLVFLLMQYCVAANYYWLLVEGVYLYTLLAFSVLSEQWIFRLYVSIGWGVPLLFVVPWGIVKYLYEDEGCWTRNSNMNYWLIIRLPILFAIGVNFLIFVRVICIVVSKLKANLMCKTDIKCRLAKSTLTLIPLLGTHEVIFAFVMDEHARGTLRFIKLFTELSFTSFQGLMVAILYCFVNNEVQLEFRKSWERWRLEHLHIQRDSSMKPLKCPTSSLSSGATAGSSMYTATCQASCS

CCCCCCCCCCCCCCCC(=O)N[C@@H](CCC(=O)NCCCC[C@H](NC(=O)[C@H](CC(=O)O)NC(=O)[C@H](CO)NC(=O)[C@@H](NC(=O)[C@H](Cc1ccccc1)NC(=O)[C@@H](NC(=O)CNC(=O)[C@H](CCC(N)=O)NC(=O)C(C)(C)NC(=O)[C@@H](N)Cc1c[nH]cn1)[C@@H](C)O)[C@@H](C)O)C(=O)N[C@@H](CO)C(=O)N[C@@H](CCCCN)C(=O)N[C@@H](Cc1ccc(O)cc1)C(=O)N[C@@H](CC(C)C)C(=O)N[C@@H](CC(=O)O)C(=O)N[C@@H](CCC(=O)O)C(=O)N[C@@H](CCCNC(=N)N)C(=O)N[C@@H](C)C(=O)N[C@@H](C)C(=O)N[C@@H](CCC(N)=O)C(=O)N[C@@H](CC(=O)O)C(=O)N[C@@H](Cc1ccccc1)C(=O)N[C@H](C(=O)N[C@@H](CCC(N)=O)C(=O)N[C@@H](Cc1c[nH]c2ccccc12)C(=O)N[C@@H](CC(C)C)C(=O)N[C@@H](CC(C)C)C(=O)N[C@@H](CC(=O)O)C(=O)NCC(=O)NCC(=O)N1CCC[C@H]1C(=O)N[C@@H](CO)C(=O)N[C@@H](CO)C(=O)NCC(=O)N[C@@H](C)C(=O)N1CCC[C@H]1C(=O)N1CCC[C@H]1C(=O)N1CCC[C@H]1C(=O)N[C@@H](CO)C(N)=O)C(C)C)C(=O)O [SEQ ID NO: 28]
EC50 (GLP-1 receptor; EC50 (nM) at GLP-1 receptor, Table 15, Example 23): 0.002 nM
EC50 (GLP-1 receptor; [1]): 0.007 nM
EC50 (GLP-1 receptor; Table 12, Example 19, read-out: EC50 (cAMP, nmole) GLPR): 0.003 nM
EC50 (GIP receptor; EC50 (nM) at GIP receptor, Table 15, Example 23): 0.002 nM
EC50 (GIP receptor; GIP (0.01), Table 8, Example 14, activity at the GIP receptor): 0.003 nM
EC50 (GIP receptor; [2]): 0.003 nM
EC50 (GIP receptor; Table 12, Example 19, read-out: EC50 (cAMP, nmole) GIPR): 0.007 nM
EC50 (glucagon receptor; EC50 (nM) at glucagon receptor, Table 15, Example 23): 0.002 nM
EC50 (glucagon receptor; [3]): 0.003 nM

CCCCCCCCCCCCCCCCC(CC(=O)Nc1ccc(C[C@H](NC(=O)[C@H](CC(=O)O)NC(=O)[C@H](CO)NC(=O)[C@@H](NC(=O)[C@H](Cc2ccccc2)NC(=O)[C@@H](NC(=O)CNC(=O)[C@H](CCC(=O)O)NC(=O)C(C)(C)NC(=O)[C@@H](N)Cc2ccc(O)cc2)[C@@H](C)O)[C@@H](C)O)C(=O)N[C@@H](CO)C(=O)N[C@H](C(=O)N[C@@H](Cc2ccc(O)cc2)C(=O)N[C@@H](CC(C)C)C(=O)N[C@@H](CC(=O)O)C(=O)N[C@@H](CCCCN)C(=O)N[C@@H](CCC(N)=O)C(=O)N[C@@H](C)C(=O)N[C@@H](C)C(=O)NC(C)(C)C(=O)N[C@@H](CCC(=O)O)C(=O)N[C@@H](Cc2ccccc2)C(=O)N[C@H](C(=O)N[C@@H](CC(N)=O)C(=O)N[C@@H](Cc2c[nH]c3ccccc23)C(=O)N[C@@H](CC(C)C)C(=O)N[C@@H](CC(C)C)C(=O)N[C@@H](C)C(=O)NCC(=O)NCC(=O)N2CCC[C@H]2C(=O)N[C@@H](CO)C(=O)N[C@@H](CO)C(=O)NCC(=O)N[C@@H](C)C(=O)N2CCC[C@H]2C(=O)N2CCC[C@H]2C(=O)N2CCC[C@H]2C(=O)N[C@@H](CO)C(N)=O)C(C)C)[C@@H](C)CC)cc1)C(=O)O (stereo partly drawn) [SEQ ID NO: 144] (H-Y[Aib]EGTFTSD[Phe(4-NH2)](X6)SIYLDKQAA[Aib]EFVNWLLAGGPSSGAPPPS-NH2; N-terminus assumed)
EC50 (GLP-1 receptor): 0.004 nM
EC50 (GIP receptor): 0.013 nM
EC50 (glucagon receptor): > 0.5 nM

CCCCCCCCCCCCCCCC(=O)N[C@@H](CCC(=O)Nc1ccc(C[C@H](NC(=O)[C@@H](NC(=O)CNC(=O)[C@H](CCC(N)=O)NC(=O)C(C)(C)NC(=O)[C@@H](N)Cc2c[nH]cn2)[C@@H](C)O)C(=O)N[C@H](C(=O)N[C@@H](CO)C(=O)N[C@@H](CC(=O)O)C(=O)N[C@@H](Cc2ccc(O)cc2)C(=O)N[C@@H](CO)C(=O)N[C@@H](CCCCN)C(=O)N[C@@H](Cc2ccc(O)cc2)C(=O)N[C@@H](CC(C)C)C(=O)N[C@@H](CC(=O)O)C(=O)N[C@@H](CCC(=O)O)C(=O)N[C@@H](CCCNC(=N)N)C(=O)N[C@@H](C)C(=O)N[C@@H](C)C(=O)N[C@@H](CCC(N)=O)C(=O)N[C@@H](CC(=O)O)C(=O)N[C@@H](Cc2ccccc2)C(=O)N[C@H](C(=O)N[C@@H](CCC(N)=O)C(=O)N[C@@H](Cc2c[nH]c3ccccc23)C(=O)N[C@@H](CC(C)C)C(=O)N[C@@H](CC(C)C)C(=O)N[C@@H](CC(=O)O)C(=O)NCC(=O)NCC(=O)N2CCC[C@H]2C(=O)N[C@@H](CO)C(=O)N[C@@H](CO)C(=O)NCC(=O)N[C@@H](C)C(=O)N2CCC[C@H]2C(=O)N2CCC[C@H]2C(=O)N2CCC[C@H]2C(=O)N[C@@H](CO)C(N)=O)C(C)C)[C@@H](C)O)cc1)C(=O)O [SEQ ID NO: 147] (H-H[Aib]QGT[Phe(4-NH2)]([γGlu-Palmitoyl])TSDYSKYLDERAAQDFVQWLLDGGPSSGAPPPS-NH2; N-terminus assumed)
EC50 (GLP-1 receptor; [1]): 0.004 nM
EC50 (GIP receptor; [2]): 3.13 nM
EC50 (glucagon receptor; Glucagon Receptor EC50, Table 10, Example 16): 0.246 nM

CCCCCCCCCCCCCCCCC(CC(=O)Nc1ccc(C[C@H](NC(=O)[C@H](CC(=O)O)NC(=O)[C@H](CO)NC(=O)[C@@H](NC(=O)[C@H](Cc2ccccc2)NC(=O)[C@@H](NC(=O)CNC(=O)[C@H](CCC(N)=O)NC(=O)C(C)(C)NC(=O)[C@@H](N)Cc2c[nH]cn2)[C@@H](C)O)[C@@H](C)O)C(=O)N[C@@H](CO)C(=O)N[C@@H](CCCCN)C(=O)N[C@@H](Cc2ccc(O)cc2)C(=O)N[C@@H](CC(C)C)C(=O)N[C@@H](CC(=O)O)C(=O)N[C@@H](CCC(=O)O)C(=O)N[C@@H](CCCNC(=N)N)C(=O)N[C@@H](C)C(=O)N[C@@H](C)C(=O)N[C@@H](CCC(N)=O)C(=O)N[C@@H](CC(=O)O)C(=O)N[C@@H](Cc2ccccc2)C(=O)N[C@H](C(=O)N[C@@H](CCC(N)=O)C(=O)N[C@@H](Cc2c[nH]c3ccccc23)C(=O)N[C@@H](CC(C)C)C(=O)N[C@@H](CC(C)C)C(=O)N[C@@H](CC(=O)O)C(=O)NCC(=O)NCC(=O)N2CCC[C@H]2C(=O)N[C@@H](CO)C(=O)N[C@@H](CO)C(=O)NCC(=O)N[C@@H](C)C(=O)N2CCC[C@H]2C(=O)N2CCC[C@H]2C(=O)N2CCC[C@H]2C(=O)N[C@@H](CO)C(N)=O)C(C)C)cc1)C(=O)O (stereo partly drawn) [SEQ ID NO: 150]
EC50 (GLP-1 receptor): 0.004 nM
EC50 (GIP receptor): 0.141 nM
EC50 (glucagon receptor): 0.006 nM

CCCCCCCCCCCCCCCC(=O)N[C@@H](CCC(=O)NCCCC[C@H](NC(=O)[C@H](CC(=O)O)NC(=O)[C@H](CO)NC(=O)[C@@H](NC(=O)[C@H](Cc1ccccc1)NC(=O)[C@@H](NC(=O)CNC(=O)[C@H](CCC(N)=O)NC(=O)[C@@H](CO)NC(=O)C(C)(C)c1c[nH]cn1)[C@@H](C)O)[C@@H](C)O)C(=O)N[C@@H](CO)C(=O)N[C@@H](CCCCN)C(=O)N[C@@H](Cc1ccc(O)cc1)C(=O)N[C@@H](CC(C)C)C(=O)N[C@@H](CC(=O)O)C(=O)N[C@@H](CCC(=O)O)C(=O)N[C@@H](CCCNC(=N)N)C(=O)N[C@@H](C)C(=O)N[C@@H](C)C(=O)N[C@@H](CCC(N)=O)C(=O)N[C@@H](CC(=O)O)C(=O)N[C@@H](Cc1ccccc1)C(=O)N[C@H](C(=O)N[C@@H](CCC(N)=O)C(=O)N[C@@H](Cc1c[nH]c2ccccc12)C(=O)N[C@@H](CC(C)C)C(=O)N[C@@H](CC(C)C)C(=O)N[C@@H](CC(=O)O)C(=O)N[C@H](C(N)=O)[C@@H](C)O)C(C)C)C(=O)O [compound 32]
EC50 (GLP-1 receptor): 0.003 nM
EC50 (glucagon receptor; Table 4, Example 9, composite of multiple different activity assays): 0.004 nM

CCCCCCCCCCCCCCCC(=O)N[C@@H](CCC(=O)N[C@@H](CCC(=O)NCCCC[C@H](NC(=O)[C@H](CC(=O)O)NC(=O)[C@H](CO)NC(=O)[C@@H](NC(=O)[C@H](Cc1ccccc1)NC(=O)[C@@H](NC(=O)CNC(=O)[C@H](CCC(N)=O)NC(=O)C(C)(C)NC(=O)[C@@H](N)Cc1c[nH]cn1)[C@@H](C)O)[C@@H](C)O)C(=O)N[C@@H](CO)C(=O)N[C@@H](CCCCN)C(=O)N[C@@H](Cc1ccc(O)cc1)C(=O)N[C@@H](CC(C)C)C(=O)N[C@@H](CC(=O)O)C(=O)NC(C)(C)C(=O)N[C@@H](CCCNC(=N)N)C(=O)N[C@@H](C)C(=O)N[C@@H](C)C(=O)N[C@@H](CCC(N)=O)C(=O)N[C@@H](CC(=O)O)C(=O)N[C@@H](Cc1ccccc1)C(=O)N[C@H](C(=O)N[C@@H](CCC(N)=O)C(=O)N[C@@H](Cc1c[nH]c2ccccc12)C(=O)N[C@@H](CC(C)C)C(=O)N[C@@H](CCSC)C(=O)N[C@@H](CC(=O)O)C(=O)NCC(=O)NCC(=O)N1CCC[C@H]1C(=O)N[C@@H](CO)C(=O)N[C@@H](CO)C(=O)NCC(=O)N[C@@H](C)C(=O)N1CCC[C@H]1C(=O)N1CCC[C@H]1C(=O)N1CCC[C@H]1C(=O)N[C@@H](CO)C(N)=O)C(C)C)C(=O)O)C(=O)O [compound 33] (H-H[Aib]QGTFTSDK([γGlu-γGlu-Palmitoyl])SKYLD[Aib]RAAQDFVQWLMDGGPSSGAPPPS-NH2)
EC50 (GLP-1 receptor; EC50 (nM) at GLP-1 Receptor, Table 4, Example 9, composite of multiple different activity assays): 0.004 nM
EC50 (glucagon receptor; EC50 (nM) at Glucagon Receptor, Table 4, Example 9, composite of multiple different activity assays): 0.005 nM

H[Aib]QGTFTSDYSKYLDERAAQDFVQWLLDAGPSSGAPPPSK([γGlu-γGlu-Palmitoyl])G-NH2 [SEQ ID NO: 204]
EC50 (GLP-1 receptor; EC50 (nM) at GLP-1 receptor, Table 16, Example 24): 0.001 nM
EC50 (glucagon receptor; [3]): 0.003 nM
